For 1 molecule, Kd results are on record in article PMC12816392, “Salmonella relies on siderophore exploitation at low pH” (microLife, 2026).

In the experiment the target is FoxA (Salmonella enterica, UniProt E1W8M5). Kind of experiment: […]-DFOE radioligand binding to whole Salmonella cells expressing FoxA, at […]-4 °C with CCCP, filtration and scintillation counting; pH […] and […]. It counts as cell-based.
Sequence of FoxA (E1W8M5 31-702): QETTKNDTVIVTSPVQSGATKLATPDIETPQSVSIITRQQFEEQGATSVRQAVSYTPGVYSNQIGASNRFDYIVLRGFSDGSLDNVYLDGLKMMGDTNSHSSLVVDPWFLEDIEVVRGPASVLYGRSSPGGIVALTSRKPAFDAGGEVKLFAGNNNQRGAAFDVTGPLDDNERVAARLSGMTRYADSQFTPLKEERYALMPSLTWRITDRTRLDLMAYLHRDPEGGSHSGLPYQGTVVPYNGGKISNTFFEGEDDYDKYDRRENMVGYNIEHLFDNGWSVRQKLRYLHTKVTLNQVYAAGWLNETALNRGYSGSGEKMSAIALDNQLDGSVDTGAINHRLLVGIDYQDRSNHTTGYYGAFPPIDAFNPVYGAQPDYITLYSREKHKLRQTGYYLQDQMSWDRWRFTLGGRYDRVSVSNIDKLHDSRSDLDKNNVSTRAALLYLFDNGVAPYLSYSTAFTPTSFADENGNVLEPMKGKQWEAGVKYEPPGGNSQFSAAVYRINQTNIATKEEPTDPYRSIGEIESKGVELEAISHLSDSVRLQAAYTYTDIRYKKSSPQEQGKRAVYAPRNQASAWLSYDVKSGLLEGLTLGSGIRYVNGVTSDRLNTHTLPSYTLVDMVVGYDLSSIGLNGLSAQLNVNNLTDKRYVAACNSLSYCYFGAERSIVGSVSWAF

As for `O=C1CCC(=O)N(O)CCCCCNC(=O)CCC(=O)N(O)CCCCCNC(=O)CCC(=O)N(O)CCCCCN1` [DFOE, ferrioxamine E], the Kd (usually the free concentration of one partner at which half of the binding sites on the other are occupied at equilibrium, for simple one-to-one binding) is ~3.2 nM.
